# Data reported in patent US20240408004A1, “COMPOSITIONS, DEVICES, AND METHODS FOR THE TREATMENT OF OVERDOSE AND REWARD-BASED DISORDERS” (priority 2018, published 2024).
# How the values were obtained:
# rabbit eye = conditions: concentrations of 25%; cited from earlier work
# [1] = Intranasal naltrexone formulation experiments (solubility, crystallization, discoloration, osmolality); assay type: physicochemical
# Method: A series of experiments were performed to identify formulations of naltrexone which would make pharmaceutically appropriate intranasal products as disclosed herein.
# A range of formulations were tested with the following observations. […] Several preparations were made at 30 mg/mL thereafter, which additionally contained fixed amounts of (dodecyl maltoside 0.25%) and NaCl (about 0.74%), and varying amounts of preservative (benzalkonium chloride, 0-0.02%) and stabilizing agent (EDTA, 0-0.3%). Crystallization behavior and discoloration were visually monitored. All of these formulations developed crystals when stored under refrigerated conditions. […] The 0.3% EDTA formulation appeared to resist yellowing for the longest period of time. Thereafter, a range of co-solvents were assessed for their potential to reduce crystallization of drug out of solution. Polyethylene glycol (PEG), propylene glycol, and benzyl alcohol were tested.
# [2] = Safety assessments of Example 4 study (adverse events, nasal irritation, vital signs, ECG); assay type: in vivo, human
# Method: Sudy Goals. […] Secondary endpoints included adverse events (AEs), vital signs (heart rate, sitting blood pressure, and respiration rate), electrocardiogram (ECG), clinical laboratory changes and nasal irritation using the nasal irritation scale.
# On dosing days, the order of assessments were ECG, vital signs, then PK blood collection when scheduled at the same nominal times. The target time of the PK blood collection was considered the most critical and if the collection was more than ±1 minute from the scheduled time for the first 60 minutes of collections or more than ±5 minutes for the scheduled time points thereafter, this was considered a protocol deviation. ECG and vital signs were collected within the 10 minute period before the nominal time of blood collections. At screening, admission, and discharge, ECG, and vital signs were checked once per day. […] Clinical laboratory measurements were repeated after the last PK blood draw prior to clinic discharge. AEs were assessed by spontaneous reports by subjects, by examination of the nasal mucosa, by measuring vital signs, ECG, and clinical laboratory parameters.
# Safety Assessments. […] ECG and vital signs was performed within the 10 minute period before the nominal time for post-dose blood collections. AEs were recorded from the start of study drug administration until clinic discharge.
# [3] = cited from earlier work
# [4] = intranasal formulation with […] dodecyl maltoside
smiles,measurement,setting,value
"CCCCCCCCCCCCO[C@@H]1O[C@H](CO)[C@@H](O[C@H]2O[C@H](CO)[C@@H](O)[C@H](O)[C@H]2O)[C@H](O)[C@H]1O [Intravail®, 1-O-n-dodecyl-β-D-maltopyranoside]",irritation in the rabbit eye model,rabbit eye,non-irritating
"O=C1CC[C@@]2(O)[C@H]3Cc4ccc(O)c5c4[C@@]2(CCN3CC2CC2)[C@H]1O5 [naltrexone, 17-(cyclopropylmethyl)-4,5α-epoxy-3,14-dihydroxymorphinan-6-one]",appearance of 50 mg/mL preparation,"[1]; room temperature, indicating incomplete dissolution",cloudy
same,solubility,"[1]; thermodynamic from solid, ambient temperature, read-out: solubility limit in solution",~40 mg/mL
same,subjects with dizziness,"[2]; 5 subjects, regardless of severity or attribution",36%
same,subjects with AEs of the Nervous System Disorders SOC,[2]; 7 subjects,50%
same,subjects who experienced at least one AE,"[2]; 10 of 14 subjects, any dosing period, any relationship to drug",71%
same,discontinuation from the study due to AEs,"[2]; hypertension, syncope, out-of-range pre-dose vital signs",Three subjects were discontinued
same,severe AEs,[2]; in vivo,No severe AEs were observed
CNS(=O)(=O)Cc1ccc2[nH]cc(CCN(C)C)c2c1 [sumatriptan],increase of total exposure (AUC),[3]; intranasal formulation with […] dodecyl maltoside vs Imitrex nasal spray,32%
same,Tmax,[3]; [4],8 to 10 min
same,increase of maximum plasma concentration in comparison to Imitrex nasal spray,[3]; [4],almost four-fold
